The subject of one data set is restraint ulcer. The experiment in a line: Inhibition of Restraint Ulcer in Rats. Particulars: Rattus norvegicus. Type of data set: in vivo, Sprague-Dawley rats (male). The protocol: (B 1) Inhibition of Restraint Ulcer in Rats (Bonfils et al, Therapie, 1960, 15, 1096).
Six Sprague - Dawley male rats (100-120 g) fasted for 24 hours were used for each group. A square flexible small-mesh wire netting was used for immobilization. After 4 hours immobilization the rats were sacrificed, their stomachs were removed, and lesions counted under a dissecting microscope.
The results obtained are reported below in Table 1, wherein the values are given as ED50.
The compounds were administered subcutaneously (s.c.) immediately before the immobilization or orally (os) one hour before.

Another data set has as its system gastric secretion. In words: Inhibition of Gastric Secretion in Rats (pylorus ligature). Type of data set: in vivo, Sprague-Dawley rats (male). The settings on record: Rattus norvegicus, sc, 4 h, s.c. at the time of ligature, read-out: ED50 Antisecretory s.c. The protocol:
(2) Inhibition of Gastric Secretion in Rats (Shay, Gastroenterology, 1945, 43, 5).
Gastric antisecretory activity was evaluated in rats by the pylorus ligature technique. Six Sprague-Dawley male rats (110-130 g) were used for each group. Twenty-four hours before the test, the rats were deprived of food but their water supply was maintained. On the day of the operation, the pylorus was ligated under light ether anaesthesia. Four hours after the ligature, the rats were sacrificed, the stomach secretion was collected and centrifuged at 3500 r.p.m. for 10 minutes, and the volume, less sediment, was determined.
The amount of the free hydrochloric acid in the gastric juice was determined by titration against 0.01 N sodium hydroxide, using Topfer's Indicator. Each compound was injected subcutaneously at the time of ligature.

Data set [1] in a line: Anticholinergic Activity in Rats. Also noted: species or system Sprague-Dawley rats (male). The settings on record: rat, in vivo. The protocol:
(3) Anticholinergic Activity in Rats. Considering that many anti-ulcer agents display, as does atropine, a remarkable but undesired anti-cholinergic activity, some derivatives were assessed for their antagonism against chromodacryorrhea induced by carbacholine in rats. (Winburg M. et al, J. Pharm. Exp. Therap., 1949, 95, 53).

The test system of data set [2] is acetylsalicylic acid-induced gastric ulcers. The experiment in a line: Inhibition of Acetylsalicylic Acid-Induced Gastric Ulcers in Rats. Type of data set: in vivo, Sprague-Dawley rats (male). Particulars: Rattus norvegicus, 4 h. The protocol:
(4) Inhibition of Acetylsalicylic Acid-Induced Gastric Ulcers in Rats.
Six Sprague-Dawley male rats (200-250 g) were used for each group. Twenty-four hours before the test, the rats were deprived of food but their water supply was maintained. Acetylsalicylic acid (100 mg/Kg) suspended in 5% gum arabic solution was given orally to the rats. Antagonists, at 3 dose levels, were given orally 60 minutes, and subcutaneously 30 minutes, before the acetylsalicylic acid treatment.
After sacrificing the animals, four hours after administration of the antagonist, the stomachs were removed, slightly inflated and immersed in 1% formalin solution for 10 minutes for fixation.
Subsequently, the stomachs were incised along the greater curvature and the lengths of lesions measured under a dissecting microscope (10 X) with a square grid. The sum of the lengths (mm) of the lesions per rat was used as the ulcer index. The percentage inhibition was calculated in respect of the ulcer index of the control group.

The subject of data set [3] is cysteamine-induced duodenal lesions. The experiment in a line: Inhibition of Cysteamine-Induced Duodenal Lesions in Rats. Type of data set: in vivo, Sprague-Dawley rats (male). Particulars: Rattus norvegicus. The protocol:
(5) Inhibition of Cysteamine-Induced Duodenal Lesions in Rats.
Six Sprague-Dawley male rats (200-225 g) were used for each group. Twenty-four hours before the test, the rats were deprived of food but allowed free access to water. Cysteamine HCl (400 mg/Kg) dissolved in physiological saline was administered subcutaneously.
Antagonists were given orally 60 minutes, and subcutaneously 30 minutes, before the cysteamine treatment. The animals were kept fasting completely for 18-24 hours after cysteamine administration, then sacrificed by an overdose of ether.
The stomach and duodenum of each rat were excised to determine the presence of gastroduodenal lesions. The sum of the area (mm^2) of lesions for each rat was measured under a dissecting microscope (10X) with a square grid and then used as an ulcer index. The percentage inhibition was calculated in respect of the ulcer index of the control group.

A short description of the next data set: Toxicity (LD50) in mice. The settings on record: mouse, in vivo, po, os. The protocol: Four compounds were examined also for the activity on acetylsalicyclic acid- and cysteamine-induced ulcers and their toxicity was also determined in mice.
Where [4] appears, read: po, 1 h, orally one hour before immobilization, read-out: ED50 Antiulcer os.
Where [5] appears, read: sc, 4 h, s.c. immediately before the immobilization, read-out: ED50 Antiulcer s.c.
The mark [6] stands for this setting: po, os, read-out: ED50 Anticholinergic os.
Setting [7] is: sc, read-out: ED50 Anticholinergic s.c.
Where [8] appears, read: po, orally 60 minutes before acetylsalicylic acid, read-out: ED50 Acetylsalicilic acid os.
The mark [9] stands for this setting: sc, s.c. 30 minutes before acetylsalicylic acid, read-out: ED50 Acetylsalicilic acid s.c.
The mark [10] stands for this setting: po, orally 60 minutes before cysteamine, read-out: ED50 Cysteamine os.
Setting [11] is: sc, s.c. 30 minutes before cysteamine, read-out: ED50 Cysteamine s.c.

Where two headings read alike, the source gives them in different places.

Broadly, the ED50 is the midpoint of the dose-response relation. For orientation: LD50 means the dose expected to kill half of the subjects tested. High values mean a less toxic substance, low ones a more toxic substance. Turning to `CCC1c2ncn(CC)c2CCN1C(=S)NC(C)C` (stereo not drawn) [I C2 H5 C2 H5 i.Pr, 1,4-Diethyl-5-(N-isopropylthiocarbamoyl)-4,5,6,7-tetrahydroimidazo-[4,5-c]-pyridine], the ED50 is 3.5 mg/kg in the data set on restraint ulcer (setting [4]); 2 mg/kg in the data set on restraint ulcer (setting [5]); 6 mg/kg in the data set on gastric secretion; above 400 mg/kg in data set [1] (setting [6]); above 200 mg/kg in data set [1] (setting [7]); 0.7 mg/kg in data set [2] (setting [8]). Besides, the ED50 came out at 0.7 mg/kg in data set [2] (setting [9]), 10 mg/kg in data set [3] (setting [10]) and 0.5 mg/kg in data set [3] (setting [11]). In the data set “Toxicity (LD50) in mice”, this compound showed an LD50 above 2500 mg/kg.
As for `CCC1c2ncn(C)c2CCN1C(=S)NC(C)C` (stereo not drawn) [I CH3 C2 H5 i.Pr, 1-Methyl-4-ethyl-5-(N-isopropylthiocarbamoyl)-4,5,6,7-tetrahydroimidazo-[4,5-c]-pyridine], the ED50 was 2.5 mg/kg in the data set on restraint ulcer (setting [4]); 4 mg/kg in the data set with restraint ulcer (setting [5]); 20 mg/kg in the data set with gastric secretion; above 100 mg/kg in data set [1] (setting [6]); above 100 mg/kg in data set [1] (setting [7]); 20 mg/kg in data set [2] (setting [8]). Moreover, the ED50 came to 10 mg/kg in data set [2] (setting [9]), 40 mg/kg in data set [3] (setting [10]) and 20 mg/kg in data set [3] (setting [11]). The LD50 in the data set “Toxicity (LD50) in mice” was above 2500 mg/kg.
For the compound `CNC(=S)N1CCc2c(ncn2C)C1` [I CH3 H CH3, 1-Methyl-5-(N-methylthiocarbamoyl)-4,5,6,7-tetrahydroimidazo-[4,5-c]-pyridine], the ED50 with restraint ulcer (setting [4]) was 25 mg/kg; in the data set with restraint ulcer (setting [5]), 15 mg/kg; in the data set on gastric secretion, 30 mg/kg; in data set [1] (setting [6]), above 100 mg/kg; in data set [1] (setting [7]) it was above 100 mg/kg.
For the compound `CC(C)NC(=S)N1CCc2c(ncn2C)C1` [I CH3 H i.Pr, 1-Methyl-5-(N-isopropylthiocarbamoyl)-4,5,6,7-tetrahydroimidazo-[4,5-c]-pyridine], the 50% effective dose (ED50) with restraint ulcer (setting [4]) turned out to be 4.5 mg/kg; in the data set on restraint ulcer (setting [5]), 1.2 mg/kg; in the data set on gastric secretion, 26 mg/kg; in data set [1] (setting [6]), 100 mg/kg; in data set [1] (setting [7]), 25 mg/kg.
As to `CCC1c2c(ncn2CC)CCN1C(=S)NC(C)C` (stereo not drawn) [II C2 H5 C2 H5 i.Pr, 3,4-diethyl-5-(N-isopropylthiocarbamoyl)-4,5,6,7-tetrahydroimidazo-[4,5-c]-pyridine, reference compound], the ED50 with gastric secretion was 10 mg/kg; in data set [1] (setting [6]), above 100 mg/kg; in data set [1] (setting [7]) it was above 100 mg/kg; in data set [2] (setting [8]), 9 mg/kg; in data set [2] (setting [9]), 6.5 mg/kg; in data set [3] (setting [10]), 40 mg/kg. In addition, in data set [3] (setting [11]), the ED50 worked out at 5.5 mg/kg. Further, the LD50 in the data set “Toxicity (LD50) in mice” is 870 mg/kg.
In the case of `CCC1c2c(ncn2C)CCN1C(=S)NC(C)C` (stereo not drawn) [II CH3 C2 H5 i.Pr, 3-Methyl-4-ethyl-5-(N-isopropylthiocarbamoyl)-4,5,6,7-tetrahydroimidazo-[4,5-c]-pyridine, reference compound], the ED50 worked out at 50 mg/kg in the data set with restraint ulcer (setting [4]); 10 mg/kg with restraint ulcer (setting [5]); 50 mg/kg with gastric secretion; 60 mg/kg in data set [1] (setting [6]); 40 mg/kg in data set [1] (setting [7]); 40 mg/kg in data set [2] (setting [8]). The ED50 in data set [2] (setting [9]) was found to be 25 mg/kg; in data set [3] (setting [10]) it was 100 mg/kg; in data set [3] (setting [11]) it was 50 mg/kg. Besides, in “Toxicity (LD50) in mice”, the LD50 turned out to be 980 mg/kg.
With `CNC(=S)N1CCc2ncn(C)c2C1` [II CH3 H CH3, reference compound], the ED50 stood at 50 mg/kg in the data set with restraint ulcer (setting [4]); 50 mg/kg in the data set with restraint ulcer (setting [5]); 50 mg/kg with gastric secretion; 100 mg/kg in data set [1] (setting [6]); 50 mg/kg in data set [1] (setting [7]).
For `CC(C)NC(=S)N1CCc2ncn(C)c2C1` [II CH3 H i.Pr, 3-Methyl-5-(N-isopropylthiocarbamoyl)-4,5,6,7-tetrahydroimidazo-[4,5-c]-pyridine], the values for the ED50 in data set [1] (setting [6]) and in data set [1] (setting [7]) were 50 mg/kg and 7 mg/kg, respectively.
In the same order, the values of `C/N=C(\S)NCCSCc1[nH]cnc1C` [Methiamide] are 85 mg/kg and 65 mg/kg.

Values taken from patent publication US4223146A, “4,5,6,7-Tetrahydroimidazo-[4,5-c]-pyridine derivatives” (Farmitalia Carlo Erba S.p.A., priority 1978, dated 1980).
